Data taken from patent publication US6693063B2, “Herbicidal composition” (Aventis CropScience GmbH, priority 2000, dated 2004).

Test system: monocotyledonous and dicotyledonous weeds
Assay: Greenhouse post-emergence herbicidal test, effect rated visually against untreated controls
Assay type: in vivo
Method: Seeds or rhizome pieces of monocotyledonous and dicotyledonous weeds were placed in sandy loam soil in plastic pots, covered with soil and grown in a greenhouse under good growth conditions. Three weeks after seeding, the test plants were treated in the three-leaf stage. The compositions of the invention, formulated as wettable powders or as emulsion concentrates, were sprayed onto the green parts of the plants at various application rates of 600-800 l of water/ha (converted). The test plants were allowed to stand in the greenhouse under optimum growth conditions for about 3 to 4 weeks, and the effect of the preparations was then rated visually in comparison to untreated controls. The compositions according to the invention have good herbicidal activity against harmful plants of economic importance.

Compound	herbicidal activity compared with a commercial formulation of bromoxynil-octanoate (300 and 600 g of AS/ha as microcapsule suspension (10%, Formulation Example 2), applied with a surfactant such as Genapol X 150, Genapol X 200, Sapogenat T130, T 200, T 300, T 400, T 500 or Genapol O 200 at 150, 300 and 600 g of surfactant/ha)	herbicidal activity compared with bromoxynil-Na applied with a surfactant having a lower content of ethylene oxide units (Genapol® 060, 6 ethylene oxide units) (bromoxynil-Na 300 g/ha in combination with a surfactant such as Genapol X 150, Genapol X 200, Sapogenat T130, T 200, T 300, T 400, T 500 or Genapol O 200 at 50, 100, 300 and 60 g/ha, post-emergence, three-leaf stage, rated after about 3 to 4 weeks)
CCCCCCCC(=O)Oc1c(Br)cc(C#N)cc1Br [Bromoxynil-octanoate, bromoxynil-octanoate]	considerably higher	
N#Cc1cc(Br)c([O-])c(Br)c1.[Na+] [bromoxynil-Na, bromoxynil-sodium]		considerably higher
